# Columns and labels:
# [1] = system: Atrial natriuretic factor (ANF) expression, C2C12 cells; test: ANF test (ANF promoter luciferase reporter) in C2C12 cells; assay type: cell-based, murine; set-up: key to Evaluation (luminescence in relation to the blank): −: decrease of luminescence compared to the blank value; +: measurable increase; ++: at least 1.5-fold increase; +++: at least 2-fold increase; details: for Evaluation (luminescence in relation to the blank): C2C12 cells (*), compound 1 μM in DMSO, relative to DMSO blank
# Text: (§1) Atrial natriuretic factor (ANF) or atrial natriuretic peptide (ANP) is a cyclic peptide hormone made up of 28 amino acids, which is predominantly emitted by the muscle cells (myocytes) of the atrium of the heart. It is stored in the atrium as a pro-hormone made of 126 amino acids and is cleaved by serine protease corine into an N-terminal part and the biologically active ANF, which is often used as a cardiac-specific marker protein. In cell differentiation measurements, i.e. in determining the extent to which certain cells have become “cardiac cell-like” by differentiation, often a reporter gene located downstream of the ANF gene is used, as it expression product is easier to detect than the concentration of ANF in a cellular culture, for example, a luciferase gene. Luciferase in an enzyme which catalyzes the oxidation of a luminescent substrate (luciferine). While that happens, light is emitted, and the intensity of that light is correlated with the expression level of ANF and can therefore serve as a measure of ANF expression.
# (§2) Initial attempts of ANF expression screenings were performed with P19 cells, i.e. murine embryonal carcinoma cells obtained from the ATCC, or C2C12 cells, i.e. a murine myoblast cell line, as models. In preparation, a plasmid was first constructed by amplifying a gene fragment containing a rat ANF promoter region and subcloning it into the PCL3-BV luciferase reporter plasmid of Promega. The P19 cells were temporarily transfected with said plasmid and cultured in Modified Eagle's Medium alpha (MEM-α) with 7.5% neonatal calf serum and 2.5% fetal bovine serum at 37° C. under 5% CO2 in monolayers for 8 days, during which the medium was exchanged three times. The respective compounds were added at about 60% confluence in DMSO as solvents at a concentration of 1 μM or DMSO alone (as a blank). The luminescence of the samples was measured with a Perkin Elmer Victor V 1420 Multilabel Counter. Their increase or decrease in the presence of the compounds of formula (I) is given in Table 1 below in relation to the blank.
# (§3) The evaluations have the following meanings: • − decrease of luminescence compared to the blank value; • + measurable increase; • ++ at least 1.5-fold increase; • +++ at least 2-fold increase; • * represents C2C12 cells; and • ** represents P19 cells.
# [2] = system: Atrial natriuretic factor (ANF) expression, P19 cells; test: ANF test (ANF promoter luciferase reporter) in P19 cells; assay type: cell-based, murine; set-up: key to Evaluation (luminescence in relation to the blank): −: decrease of luminescence compared to the blank value; +: measurable increase; ++: at least 1.5-fold increase; +++: at least 2-fold increase; details: for ANF expression level / efficiency, stated in words: ANF test, P19 cells (DTAB and summary statements also cover C2C12); for Evaluation (luminescence in relation to the blank) / fold induction at 1 µM: P19 cells (**), compound 1 μM in DMSO, 8 days culture, relative to DMSO blank; for fold induction at 1 µM: Mus musculus, 192 h, read-out: Evaluation (luminescence in relation to the blank)
# Text: as §1, §2, §3
# zebrafish embryos = details: literature (Peterson et al.); cited from earlier work
SMILES,melting point,Evaluation (luminescence in relation to the blank) [2],also measured
"COc1ccc(Nc2nc(Cl)nc(NCCO)n2)cc1 [Compound (1), 2-[4-chloro-6-(4-methoxyphenylamino)-1,3,5-triazin-2-ylamino]ethanol]",169 to 173 °C,–,Evaluation (luminescence in relation to the blank) [1]: +*
"COc1ccc(Nc2nc(Cl)nc(NCCCO)n2)cc1 [(2), 3-[4-chloro-6-(4-methoxyphenylamino)-1,3,5-triazin-2-ylamino]propan-1-ol]",155 to 159 °C,–,"Evaluation (luminescence in relation to the blank) [1]: ++* (at least 1.5-fold increase); efficiency in ANF test, stated in words ([1]; C2C12 cells, 1 μM): very good efficiency"
"O=C(O)c1cccc(Nc2nc(Oc3ccccc3)nc(Oc3ccccc3)n2)c1 [DTAB, 3-[(4.6-diphenoxy-1,3,5-triazin-2-yl)amino]benzoic acid, reference compound]",–,−* −**,"ANF expression level / efficiency, stated in words [2]: substantially no changes in the ANF expression level were found, even a slight decrease; Evaluation (luminescence in relation to the blank) [1]: −* −**; influence on embryo development (zebrafish embryos): substantial influence on the formation of the anterior-posterior (A-P) axis and organ development in embryos"
"COC(=O)c1cccc(Nc2nc(Oc3ccccc3)nc(Oc3ccc(OC)cc3)n2)c1 [(11), 3-{[4-(4-methoxyphenoxy)-6-phenoxy-1,3,5-triazin-2-yl]amino}benzoic acid methyl ester]",56 to 60 °C,−**,–
"OCc1cccc(Nc2nc(Oc3ccccc3)nc(Oc3ccccc3)n2)c1 [(40), {3-[(4,6-diphenoxy-1,3,5-triazin-2-yl)amino]phenyl}methanol]",49 to 52 °C,+**,–
"CCOC(=O)c1ccc(Nc2nc(Oc3ccccc3)nc(Oc3ccccc3)n2)cc1 [(5), 4-[(4.6-diphenoxy-1,3,5-triazin-2-yl)amino]benzoic acid ethyl ester]",159 to 161 °C,−**,–
"O=C(O)c1cccc(Nc2nc(Oc3ccccc3)nc(Oc3ccccc3Cl)n2)c1 [(31), 3-{[4-(2-chlorophenoxy)-6-phenoxy-1,3,5-triazin-2-yl]amino}benzoic acid]",249.5 to 251.5 °C,–,fold induction at 1 µM [2]: ≥ 1.5
"COC(=O)c1cccc(Nc2nc(Oc3ccccc3)nc(Oc3ccccc3Cl)n2)c1 [(9), 3-{[4-(2-chlorophenoxy)-6-phenoxy-1,3,5-triazin-2-yl]amino}benzoic acid methyl ester]",139 to 141.5 °C,−**,–
"COC(=O)c1cccc(Nc2nc(Oc3ccccc3)nc(Oc3ccc(Cl)cc3)n2)c1 [(7), 3-{[4-(4-chlorophenoxy)-6-phenoxy-1,3,5-triazin-2-yl]amino}benzoic acid methyl ester]",186.5 to 188 °C,−**,–
"COc1ccc(Oc2nc(Nc3cccc(C(=O)O)c3)nc(Oc3ccc(C#N)cc3)n2)cc1 [(38), 3-{[4-(4-cyanophenoxy)-6-(4-methoxyphenoxy)-1,3,5-triazin-2-yl]-amino}benzoic acid]",240.5 to 242.5 °C,–,fold induction at 1 µM [2]: ≥ 1.5
"OCc1cccc(Nc2nc(Oc3ccccc3)nc(Oc3ccc(Cl)cc3)n2)c1 [(41), {3-[(4-(4-chlorophenoxy)-6-phenoxy-1,3,5-triazin-2-yl)amino]phenyl}-methanol]",110.5 to 114 °C,−** and (41) (p-chloro): −,–
"COc1ccc(Oc2nc(Nc3cccc(C(=O)O)c3)nc(Oc3ccccc3)n2)cc1 [(33), 3-{[4-(4-methoxyphenoxy)-6-phenoxy-1,3,5-triazin-2-yl]amino}benzoic acid]",233 to 236.5 °C,+**,–
"COC(=O)c1cccc(Nc2nc(Oc3ccccc3)nc(Oc3cccc(Cl)c3)n2)c1 [(8), 3-{[4-(3-chlorophenoxy)-6-phenoxy-1,3,5-triazin-2-yl]amino}benzoic acid methyl ester]",151.5 to 156 °C,–,fold induction at 1 µM [2]: ≥ 1.5
"COc1ccc(Nc2ncnc(NCCO)n2)cc1 [(4), 2-[4-(4-methoxyphenylamino)-1,3,5-triazin-2-ylamino]ethanol]",160 to 164 °C,−**,"ANF expression level / efficiency, stated in words [2]: the poorest measurement results among all compounds"
"CCNc1nc(Cl)nc(Nc2ccc(OC)cc2)n1 [(3), 6-chloro-N2-ethyl-N4-(4-methoxyphenyl)-1,3,5-triazin-2.4-diamine]",174 to 176 °C,−**,"ANF expression level / efficiency, stated in words [2]: the poorest measurement results among all compounds"

# Source: patent publication US9611457B2, “Triazine derivatives as differentiation catalysts” (TECHNISCHE UNIVERSITAET WIEN, priority 2011, dated 2017)
